Results reported in patent US20120029187A1, “HALOALKYLSULFONANILIDE DERIVATIVE” (Nissan Chemical Industries, Ltd., priority 2009, published 2012).

Legend:
Type in all cases: in vivo
[1] = tested on: barnyardgrass; assay: Test Example 3: herbicidal effects in soil treatment; settings: dose 3.2 g/a
How it was run: (§1)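 Seeds were sown in sterilized diluvial soil and covered with about 1.5 cm of soil. Compounds, formulated as emulsifiable concentrates and diluted with water, were sprayed evenly over the soil surface at set doses in g/a. Herbicidal effect was scored on a rating scale three weeks later.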

[2] = tested on: giant foxtail; assay: as above; settings: dose 3.2 g/a
How it was run: as §1

[3] = tested on: common ragweed; assay: as above; settings: dose 3.2 g/a
How it was run: as §1

[4] = tested on: water foxtail; assay: as above; settings: dose 3.2 g/a
How it was run: as §1

[5] = tested on: beadstraw; assay: as above; settings: dose 3.2 g/a
How it was run: as §1

[6] = tested on: Italian ryegrass; assay: as above; settings: dose 3.2 g/a
How it was run: as §1

[7] = tested on: large crabgrass; assay: as above; settings: dose 3.2 g/a
How it was run: as §1

[8] = tested on: redroot pigweed; assay: as above; settings: dose 3.2 g/a
How it was run: as §1

[9] = tested on: common lambsquater; assay: as above; settings: dose 3.2 g/a
How it was run: as §1

[10] = tested on: common chickweed; assay: as above; settings: dose 3.2 g/a
How it was run: as §1

[11] = tested on: barnyardgrass; assay: Test Example 2: herbicidal effects during the vegetation period under submerged conditions; settings: treatment during the vegetation period under submerged conditions; dose 2.52 g/a
How it was run: (§2)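 Barnyardgrass, bulrush and ducksalad were co-sown in alluvial soil flooded to 4 cm and grown in a greenhouse at 25 to 30° C. At the 1- or 2-leaf stage, water-diluted emulsifiable concentrates went onto the water surface at set doses (g/a). Herbicidal effect was scored three weeks later on a graded scale.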

[12] = tested on: ducksalad; assay: as above; settings: treatment during the vegetation period under submerged conditions; dose 2.52 g/a
How it was run: as §2

[13] = tested on: bulrush; assay: as above; settings: treatment during the vegetation period under submerged conditions; dose 2.52 g/a
How it was run: as §2

[14] = tested on: barnyardgrass; assay: Test Example 1: herbicidal effects in preemergence treatment under submerged conditions; settings: dose 2.52 g/a
How it was run: (§3)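 Alluvial soil was flooded to 4 cm, sown with barnyardgrass, bulrush and ducksalad, and planted with 2.5-leaf rice seedlings. On the seeding day, water-diluted emulsifiable concentrates were applied to the water surface at set doses (g/a). After three weeks in a 25 to 30° C. greenhouse, mortality was scored 0–5.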

[15] = tested on: ducksalad; assay: as above; settings: dose 2.52 g/a
How it was run: as §3

[16] = tested on: bulrush; assay: as above; settings: dose 2.52 g/a
How it was run: as §3

[17] = tested on: transplanted rice; assay: Test Example 1: preemergence treatment under submerged conditions, effect on crop; settings: dose 2.52 g/a
How it was run: as §3

[18] = tested on: posumbu knotweed; assay: Test Example 4: herbicidal effect in foliage treatment; settings: dose 3.2 g/a, three weeks after the application
How it was run: (§4)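 Seeds were spot-sown in boxes of sterilized diluvial soil and raised in a greenhouse (25 to 30° C) for 14 days before a single foliar application. Compounds were applied as emulsifiable concentrates diluted with water, at predetermined doses in g/a. Injury was graded three weeks post-spray.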

[19] = tested on: barnyardgrass; assay: as above; settings: dose 3.2 g/a, three weeks after the application
How it was run: as §4

[20] = tested on: wild oat; assay: as above; settings: dose 3.2 g/a, three weeks after the application
How it was run: as §4

[21] = tested on: giant foxtail; assay: as above; settings: dose 3.2 g/a, three weeks after the application
How it was run: as §4

[22] = tested on: common ragweed; assay: as above; settings: dose 3.2 g/a, three weeks after the application
How it was run: as §4

[23] = tested on: water foxtail; assay: as above; settings: dose 3.2 g/a, three weeks after the application
How it was run: as §4

[24] = tested on: Italian ryegrass; assay: as above; settings: dose 3.2 g/a, three weeks after the application
How it was run: as §4

[25] = tested on: large crabgrass; assay: as above; settings: dose 3.2 g/a, three weeks after the application
How it was run: as §4

[26] = tested on: redroot pigweed; assay: as above; settings: dose 3.2 g/a, three weeks after the application
How it was run: as §4

[27] = tested on: common lambsquater; assay: as above; settings: dose 3.2 g/a, three weeks after the application
How it was run: as §4

[28] = tested on: common chickweed; assay: as above; settings: dose 3.2 g/a, three weeks after the application
How it was run: as §4

[29] = tested on: velvetleaf; assay: as above; settings: dose 3.2 g/a, three weeks after the application
How it was run: as §4

[30] = tested on: wild oat; assay: Test Example 3: herbicidal effects in soil treatment; settings: dose 3.2 g/a
How it was run: as §1

[31] = tested on: velvetleaf; assay: as above; settings: dose 3.2 g/a
How it was run: as §1

`CC1OC(C)(C)CC(=O)N1Cc1ccccc1NS(=O)(=O)C(F)(F)F` (centres unmarked) [II-72] was tested, and the “A: barnyardgrass, herbicidal effect (evaluation scale 0-5)” value [1] was 5 (mortality of 90% or above (nearly complete death)), the “E: giant foxtail, herbicidal effect (evaluation scale 0-5)” value [2] was 5 (mortality of 90% or above (nearly complete death)) and the “J: common ragweed, herbicidal effect (evaluation scale 0-5)” value [3] was 4 (mortality of at least 70% and less than 90%). For the same molecule, the “G: water foxtail, herbicidal effect (evaluation scale 0-5)” value [4] was 5 (mortality of 90% or above (nearly complete death)), the “O: beadstraw, herbicidal effect (evaluation scale 0-5)” value [5] was 4 (mortality of at least 70% and less than 90%) and the “H: Italian ryegrass, herbicidal effect (evaluation scale 0-5)” value [6] was 5 (mortality of 90% or above (nearly complete death)). For the same molecule, the “D: large crabgrass, herbicidal effect (evaluation scale 0-5)” value [7] was 5 (mortality of 90% or above (nearly complete death)), the “K: redroot pigweed, herbicidal effect (evaluation scale 0-5)” value [8] was 3 (mortality of at least 40% and less than 70%) and the “L: common lambsquater, herbicidal effect (evaluation scale 0-5)” value [9] was 0 (mortality of less than 5% (almost ineffective)). For the same molecule, the “N: common chickweed, herbicidal effect (evaluation scale 0-5)” value [10] was 4 (mortality of at least 70% and less than 90%), the “A: barnyardgrass, herbicidal effect (evaluation scale 0-5)” value [11] was 5 (mortality of 90% or above (nearly complete death)) and the “C: ducksalad, herbicidal effect (evaluation scale 0-5)” value [12] was 5 (mortality of 90% or above (nearly complete death)). The “B: bulrush, herbicidal effect (evaluation scale 0-5)” value [13] was 5 (mortality of 90% or above (nearly complete death)), the “A: barnyardgrass, herbicidal effect (evaluation scale 0-5)” value [14] was 5 (mortality of 90% or above (nearly complete death)) and the “C: ducksalad, herbicidal effect (evaluation scale 0-5)” value [15] was 5 (mortality of 90% or above (nearly complete death)). For the same molecule, the “B: bulrush, herbicidal effect (evaluation scale 0-5)” value [16] was 5 (mortality of 90% or above (nearly complete death)), the “a: transplanted rice, effect on crop (evaluation scale 0-5)” value [17] was 3 (mortality of at least 40% and less than 70%) and the “M: posumbu knotweed, herbicidal effect” value [18] was 3 (mortality of at least 40% and less than 70%). For the same molecule, the “A: barnyardgrass, herbicidal effect” value [19] was 4 (mortality of at least 70% and less than 90%), the “F: wild oat, herbicidal effect” value [20] was 1 (mortality of at least 5% and less than 20%) and the “E: giant foxtail, herbicidal effect” value [21] was 4 (mortality of at least 70% and less than 90%). The “J: common ragweed, herbicidal effect” value [22] was 3 (mortality of at least 40% and less than 70%), the “G: water foxtail, herbicidal effect” value [23] was 5 (mortality of 90% or above (nearly complete death)) and the “H: Italian ryegrass, herbicidal effect” value [24] was 5 (mortality of 90% or above (nearly complete death)). For the same molecule, the “D: large crabgrass, herbicidal effect” value [25] was 4 (mortality of at least 70% and less than 90%), the “K: redroot pigweed, herbicidal effect” value [26] was 2 (mortality of at least 20% and less than 40%) and the “L: common lambsquater, herbicidal effect” value [27] was 1 (mortality of at least 5% and less than 20%). For the same molecule, the “N: common chickweed, herbicidal effect” value [28] was 3 (mortality of at least 40% and less than 70%) and the “I: velvetleaf, herbicidal effect” value [29] was 5 (mortality of 90% or above (nearly complete death)).
`CCOC(=O)N(c1ccccc1CN1C(=O)C(Br)C(C)(C)OC1C)S(=O)(=O)C(F)(F)F` (centres unmarked) [II-76] was tested, and the “herbicidal effect, A: barnyardgrass” value [1] was 3 (mortality of at least 40% and less than 70%), the “herbicidal effect, F: wild oat” value [30] was 0 (mortality of less than 5% (almost ineffective)) and the “herbicidal effect, E: giant foxtail” value [2] was 0 (mortality of less than 5% (almost ineffective)). The “herbicidal effect, J: common ragweed” value [3] was 0 (mortality of less than 5% (almost ineffective)), the “herbicidal effect, G: water foxtail” value [4] was 5 (mortality of 90% or above (nearly complete death)) and the “herbicidal effect, O: beadstraw” value [5] was 5 (mortality of 90% or above (nearly complete death)). For the same molecule, the “herbicidal effect, H: Italian ryegrass” value [6] was 0 (mortality of less than 5% (almost ineffective)), the “herbicidal effect, D: large crabgrass” value [7] was 3 (mortality of at least 40% and less than 70%) and the “herbicidal effect, K: redroot pigweed” value [8] was 3 (mortality of at least 40% and less than 70%). The “herbicidal effect, L: common lambsquater” value [9] was 3 (mortality of at least 40% and less than 70%), the “herbicidal effect, N: common chickweed” value [10] was 3 (mortality of at least 40% and less than 70%) and the “herbicidal effect, I: velvetleaf” value [31] was 3 (mortality of at least 40% and less than 70%).
